{
  "source": "patent US10208059B2",
  "about": "“Heterocyclic modulators of HIF activity for treatment of disease” (Board of Regents, University of Texas System, priority 2012, dated 2019)",
  "note": "Counter-ions that a name gives are not always drawn.",
  "data": [
    {"system": "293T-HRE-GFP-luc cells", "test": "Cell-based reporter assay for IC50 determinations", "settings": "hypoxia 6 hrs (1% O2), luminescence, read-out: IC50 Classification", "method": "Cell-Based Reporter Assay for IC50 Determinations\n293T-HRE-GFP-luc cells were routinely maintained in DMEM media (high glucose version with GlutaMAX and HEPES, Gibco, catalog #10564) supplemented with 10% fetal bovine serum and 2 μg/mL puromycin (Invitrogen, catalog #A11138-03) using a humidified incubator (normoxia conditions consisting of 37° C., 5% CO2 and ambient O2).\nIn preparation for the reporter assay, cells were harvested and resuspended in DMEM media (high glucose version with GlutaMAX and HEPES) supplemented with 10% fetal bovine serum. Cells were inoculated into 384-well white Culturplates (Perkin Elmer catalog #6007680) at a density of 12,000 cells/well in a volume of 30 μL. The microplates were incubated overnight (approximately 17-19 hours) at 37° C. with 5% CO2 and ambient O2. Stock solutions of the test compounds were prepared in DMSO (Sigma, Catalog #D2650) and serially diluted 1:3 using DMSO. Compounds were additionally diluted (1:50) with culturemedium and 10 μL were added per well to the Culturplate. Following a 30 min. incubation under normoxia conditions, the plates were incubated in hypoxia for 6 hrs. (37° C., 5% CO2 and 1% O2). Steadylite Plus (Perkin Elmer, catalog #6016751) was then added (40 μL/well), the plates were mixed on an orbital shaker at room temperature in the dark for 15 min., and luminescence was measured using an Envision plate reader (Perkin Elmer). IC50 values were calculated using a four-parameter logistic curve fit. Results are shown below in Table 2; ND indicates no data.", "units": {"IC50": "µM"}, "values": [
      {"compound": "Cc1nc(-c2nc(-c3ccc(OC(F)(F)F)cc3)no2)nn1Cc1ccnc(N2CCNCC2)c1", "note": "[Example 1, 4-(4-((5-Methyl-3-(3-(4-(trifluoromethoxy)phenyl)-1,2,4-oxadiazol-5-yl)-1H-1,2,4-triazol-1-yl)methyl)pyridin-2-yl)piperazin-1-ium trifluoroacetate]", "IC50": "0.1 to 1"},
      {"compound": "Cc1nc(-c2ccc(-c3ccccc3)o2)nn1Cc1ccnc(N2CCN(C)CC2)c1", "note": "[Example 3]", "IC50": "1 to 10"},
      {"compound": "FC(F)(F)Oc1ccc(-c2noc(-c3nc(-c4cccnc4)n(Cc4ccccc4)n3)n2)cc1", "note": "[Example 4, 3-(1-Benzyl-3-(3-(4-(trifluoromethoxy)phenyl)-1,2,4-oxadiazol-5-yl)-1H-1,2,4-triazol-5-yl)pyridin-1-ium trifluoroacetate]", "IC50": "< 0.1"},
      {"compound": "Cc1nc(-c2nnc(-c3ccccc3)o2)nn1Cc1ccnc(N2CCC(C)(C)CC2)c1", "note": "[Example 5, 2-(4,4-Dimethylpiperidin-1-yl)-4-((5-methyl-3-(5-phenyl-1,3,4-oxadiazol-2-yl)-1H-1,2,4-triazol-1-yl)methyl)pyridin-1-ium trifluoroacetate]", "IC50": "1 to 10"},
      {"compound": "Cc1nc(-c2nnc(-c3ccc(OC(F)(F)F)cc3)o2)nn1Cc1cccc(N2CCN(C)CC2)c1", "note": "[Example 6, 1-Methyl-4-(3-((5-methyl-3-(5-(4-(trifluoromethoxy)phenyl)-1,3,4-oxadiazol-2-yl)-1H-1,2,4-triazol-1-yl)methyl)phenyl)piperazin-1-ium trifluoroacetate]", "IC50": "< 0.1"},
      {"compound": "Cc1nc(-c2nnc(-c3ccc(OC(F)(F)F)cc3)o2)nn1Cc1ccnc(N2CCN(C)CC2)c1", "note": "[Example 7, 1-Methyl-4-(4-((5-methyl-3-(5-(4-(trifluoromethoxy)phenyl)-1,3,4-oxadiazol-2-yl)-1H-1,2,4-triazol-1-yl)methyl)pyridin-1-ium-2-yl)piperazin-1-ium trifluoroacetate]", "IC50": "0.1 to 1"},
      {"compound": "Cc1nc(-c2nnc(-c3ccc(C(C)(C)C)cc3)o2)nn1Cc1cccc(N2CCN(C)CC2)c1", "note": "[Example 8, 2-(4-(tert-Butyl)phenyl)-5-(5-methyl-1-(3-(4-methylpiperazin-1-yl)benzyl)-1H-1,2,4-triazol-3-yl)-1,3,4-oxadiazole]", "IC50": "< 0.1"},
      {"compound": "Cc1nc(-c2nc(-c3ccc(C(C)(C)C)cc3)no2)nn1Cc1ccnc(N2CCN(C)CC2)c1", "note": "[Example 9, 3-(4-(tert-Butyl)phenyl)-5-(5-methyl-1-((2-(4-methylpiperazin-1-yl)pyridin-4-yl)methyl)-1H-1,2,4-triazol-3-yl)-1,2,4-oxadiazole]", "IC50": "< 0.1"},
      {"compound": "Cc1nc(-c2nc(-c3ccc(OC(F)(F)F)cc3)no2)nn1Cc1ccnc(N2CCOCC2)c1", "note": "[Example 10, 4-(4-((5-Methyl-3-(3-(4-(trifluoromethoxy)phenyl)-1,2,4-oxadiazol-5-yl)-1H-1,2,4-triazol-1-yl)methyl)pyridin-2-yl)morpholine]", "IC50": "< 0.1"},
      {"compound": "Cc1nc(-c2nc(-c3ccc(OC(F)(F)F)cc3)no2)nn1Cc1cccc(NCCN(C)C)c1", "note": "[Example 11, N,N-Dimethyl-2-((3-((5-methyl-3-(3-(4-(trifluoromethoxy)phenyl)-1,2,4-oxadiazol-5-yl)-1H-1,2,4-triazol-1-yl)methyl)phenyl)amino)ethanaminium trifluoroacetate]", "IC50": "1 to 10"},
      {"compound": "COC(=O)c1cccc(Cn2nc(-c3nc(-c4ccc(OC(F)(F)F)cc4)no3)nc2C)c1", "note": "[Example 12, Methyl 3-((5-methyl-3-(3-(4-(trifluoromethoxy)phenyl)-1,2,4-oxadiazol-5-yl)-1H-1,2,4-triazol-1-yl)methyl)benzoate]", "IC50": "< 0.1"},
      {"compound": "Cc1nc(-c2nc(-c3ccc(OC(F)(F)F)cc3)no2)nn1Cc1cccc(C(=O)N2CCN(C)CC2)c1", "note": "[Example 13, (3-((5-Methyl-3-(3-(4-(trifluoromethoxy)phenyl)-1,2,4-oxadiazol-5-yl)-1H-1,2,4-triazol-1-yl)methyl)phenyl)(4-methylpiperazin-1-yl)methanone]", "IC50": "< 0.1"},
      {"compound": "COCCCNC(=O)c1cccc(Cn2nc(-c3nc(-c4ccc(OC(F)(F)F)cc4)no3)nc2C)c1", "note": "[Example 14, N-(3-methoxypropyl)-3-((5-methyl-3-(3-(4-(trifluoromethoxy)phenyl)-1,2,4-oxadiazol-5-yl)-1H-1,2,4-triazol-1-yl)methyl)benzamide]", "IC50": "< 0.1"},
      {"compound": "Cc1ccc(Cn2nc(-c3nc(-c4ccc(OC(F)(F)F)cc4)no3)nc2C)cc1", "note": "[Example 15, 5-(5-Methyl-1-(4-methylbenzyl)-1H-1,2,4-triazol-3-yl)-3-(4-(trifluoromethoxy)phenyl)-1,2,4-oxadiazole]", "IC50": "< 0.1"},
      {"compound": "Cc1nc(-c2nc(-c3ccc(OC(F)(F)F)cc3)no2)nn1Cc1cn2ccccc2n1", "note": "[Example 16, 5-(1-(imidazo[1,2-a]pyridin-2-ylmethyl)-5-methyl-1H-1,2,4-triazol-3-yl)-3-(4-(trifluoromethoxy)phenyl)-1,2,4-oxadiazole]", "IC50": "0.1 to 1"},
      {"compound": "Cc1nc(-c2nc(-c3ccc(OC(F)(F)F)cc3)no2)nn1Cc1cnc(Cl)s1", "note": "[Example 17, 5-(1-((2-Chlorothiazol-5-yl)methyl)-5-methyl-1H-1,2,4-triazol-3-yl)-3-(4-(trifluoromethoxy)phenyl)-1,2,4-oxadiazole]", "IC50": "1 to 10"},
      {"compound": "Cc1nc(-c2nc(-c3ccc(OC(F)(F)F)cc3)no2)nn1Cc1cnc(N2CCOCC2)s1", "note": "[Example 18, 4-(5-((5-Methyl-3-(3-(4-(trifluoromethoxy)phenyl)-1,2,4-oxadiazol-5-yl)-1H-1,2,4-triazol-1-yl)methyl)thiazol-2-yl)morpholine]", "IC50": "1 to 10"},
      {"compound": "Cc1nc(-c2nc(-c3ccc(OC(F)(F)F)cc3)no2)nn1Cc1ccnc(Cl)n1", "note": "[Example 19, 5-(1-((2-Chloropyrimidin-4-yl)methyl)-5-methyl-1H-1,2,4-triazol-3-yl)-3-(4-(trifluoromethoxy)phenyl)-1,2,4-oxadiazole]", "IC50": "1 to 10"},
      {"compound": "Cc1nc(-c2nc(-c3ccc(OC(F)(F)F)cc3)no2)nn1Cc1ccnc(N2CCN(C)CC2)n1", "note": "[Example 20, 5-(5-Methyl-1-((2-(4-methylpiperazin-1-yl)pyrimidin-4-yl)methyl)-1H-1,2,4-triazol-3-yl)-3-(4-(trifluoromethoxy)phenyl)-1,2,4-oxadiazole]", "IC50": "< 0.1"},
      {"compound": "Cc1nc(-c2nc(-c3ccc(S(C)(=O)=O)cc3)no2)nn1Cc1ccnc(N2CCN(C)CC2)c1", "note": "[Example 21, 1-Methyl-4-(4-((5-methyl-3-(3-(4-(methylsulfonyl)phenyl)-1,2,4-oxadiazol-5-yl)-1H-1,2,4-triazol-1-yl)methyl)pyridin-1-ium-2-yl)piperazin-1-ium bis-trifluoroacetate]", "IC50": "1 to 10"},
      {"compound": "Cc1ccc(-c2noc(-c3nc(C)n(Cc4ccnc(N5CCN(C)CC5)c4)n3)n2)cc1", "note": "[Example 22, 1-Methyl-4-(4-((5-methyl-3-(3-(p-tolyl)-1,2,4-oxadiazol-5-yl)-1H-1,2,4-triazol-1-yl)methyl)pyridin-1-ium-2-yl)piperazin-1-ium bis-trifluoroacetate]", "IC50": "0.1 to 1"},
      {"compound": "Cc1nc(-c2nc(-c3ccc(OC(F)F)cc3)no2)nn1Cc1ccnc(N2CCN(C)CC2)c1", "note": "[Example 23, 4-(4-((3-(3-(4-(Difluoromethoxy)phenyl)-1,2,4-oxadiazol-5-yl)-5-methyl-1H-1,2,4-triazol-1-yl)methyl)pyridin-1-ium-2-yl)-1-methylpiperazin-1-ium bis-trifluoroacetate]", "IC50": "0.1 to 1"},
      {"compound": "Cc1nc(-c2nc(-c3ccc(OC(F)(F)F)cc3)no2)nn1Cc1ccccc1", "note": "[Example 24, 5-(1-Benzyl-5-methyl-1H-1,2,4-triazol-3-yl)-3-(4-(trifluoromethoxy)phenyl)-1,2,4-oxadiazole]", "IC50": "0.1 to 1"}
    ]}
  ]
}
